From ChEMBL document CHEMBL1201861, “Genomics of Drug Sensitity in Cancer screening data, Wellcome Trust Sanger Institute”

Columns and labels:
Assay in all cases: cells
KNS-81-FD = assay type: functional, cell-based; conditions: Homo sapiens;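 further: growth inhibition of KNS-81-FD cells, read out with a cell viability assay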
Description: SANGER: Inhibition of human KNS-81-FD cell growth in a cell viability assay.

SK-LMS-1 = assay type: functional, cell-based; conditions: Homo sapiens;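 further: growth inhibition of human SK-LMS-1 cells, read out with a cell viability assay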
Description: SANGER: Inhibition of human SK-LMS-1 cell growth in a cell viability assay.

SCC-15 = assay type: functional, cell-based; conditions: Homo sapiens;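 further: growth inhibition of SCC-15 cells, read out with a cell viability assay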
Description: SANGER: Inhibition of human SCC-15 cell growth in a cell viability assay.

OS-RC-2 = assay type: functional, cell-based; conditions: Homo sapiens;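 further: growth inhibition of human OS-RC-2 cells, measured by a cell viability assay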
Description: SANGER: Inhibition of human OS-RC-2 cell growth in a cell viability assay.

TE-9 = assay type: functional, cell-based; conditions: Homo sapiens;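 further: cell growth inhibition, measured with a cell viability readout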
Description: SANGER: Inhibition of human TE-9 cell growth in a cell viability assay.

DMS-79 = assay type: functional, cell-based; conditions: Homo sapiens;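 further: growth inhibition measured with a cell viability assay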
Description: SANGER: Inhibition of human DMS-79 cell growth in a cell viability assay.

RKO = assay type: functional, cell-based; conditions: Homo sapiens;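 further: growth inhibition of human RKO cells, read out with a cell viability assay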
Description: SANGER: Inhibition of human RKO cell growth in a cell viability assay.

C-33-A = assay type: functional, cell-based; conditions: Homo sapiens;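 further: cell viability assay measuring growth inhibition of C-33-A cells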
Description: SANGER: Inhibition of human C-33-A cell growth in a cell viability assay.

GAK = assay type: functional, cell-based; conditions: Homo sapiens;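 further: cell growth inhibition read out by a cell viability assay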
Description: SANGER: Inhibition of human GAK cell growth in a cell viability assay.

DB = assay type: functional, cell-based; conditions: Homo sapiens
Description: SANGER: Inhibition of human DB cell growth in a cell viability assay.

EW-13 = assay type: functional, cell-based; conditions: Homo sapiens;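 further: growth inhibition of EW-13 cells, read out with a cell viability assay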
Description: SANGER: Inhibition of human EW-13 cell growth in a cell viability assay.

UACC-257 = assay type: functional, cell-based; conditions: Homo sapiens
Description: SANGER: Inhibition of human UACC-257 cell growth in a cell viability assay.

ML-2 = assay type: functional, cell-based; conditions: Homo sapiens;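 further: growth inhibition of ML-2 cells, measured with a cell viability readout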
Description: SANGER: Inhibition of human ML-2 cell growth in a cell viability assay.

MFM-223 = assay type: functional, cell-based; conditions: Homo sapiens
Description: SANGER: Inhibition of human MFM-223 cell growth in a cell viability assay.

LOUCY = assay type: functional, cell-based; conditions: Homo sapiens;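 further: growth inhibition of human LOUCY cells, read out with a cell viability assay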
Description: SANGER: Inhibition of human LOUCY cell growth in a cell viability assay.

CAS-1 = assay type: functional, cell-based; conditions: Homo sapiens;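 further: growth inhibition of CAS-1 cells, measured with a cell viability assay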
Description: SANGER: Inhibition of human CAS-1 cell growth in a cell viability assay.

NY = assay type: functional, cell-based; conditions: Homo sapiens
Description: SANGER: Inhibition of human NY cell growth in a cell viability assay.

SW 954 = assay type: functional, cell-based; conditions: Homo sapiens;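 further: growth inhibition of SW954 human cancer cells, read out as cell viability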
Description: SANGER: Inhibition of human SW954 cell growth in a cell viability assay.

IST-SL1 = assay type: functional, cell-based; conditions: Homo sapiens;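 further: growth inhibition of human IST-SL1 cells, read out with a cell viability assay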
Description: SANGER: Inhibition of human IST-SL1 cell growth in a cell viability assay.

TE-6 = assay type: functional, cell-based; conditions: Homo sapiens;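 further: growth inhibition of TE-6 cells, read out with a cell viability assay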
Description: SANGER: Inhibition of human TE-6 cell growth in a cell viability assay.

MZ2-MEL = assay type: functional, cell-based; conditions: Homo sapiens;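 further: growth inhibition of MZ2-MEL cells read out with a cell viability assay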
Description: SANGER: Inhibition of human MZ2-MEL cell growth in a cell viability assay.

Ramos-2G6-4C10 = assay type: functional, cell-based; conditions: Homo sapiens;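 further: growth inhibition of the cell line, measured by a cell viability read-out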
Description: SANGER: Inhibition of human Ramos-2G6-4C10 cell growth in a cell viability assay.

OCI-AML2 = assay type: functional, cell-based; conditions: Homo sapiens;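 further: growth inhibition of OCI-AML2 cells, read out with a cell viability assay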
Description: SANGER: Inhibition of human OCI-AML2 cell growth in a cell viability assay.

MOLT-4 = assay type: functional, cell-based; conditions: Homo sapiens;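 further: growth inhibition of MOLT-4 cells, determined with a cell viability readout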
Description: SANGER: Inhibition of human MOLT-4 cell growth in a cell viability assay.

OE19 = assay type: functional, cell-based; conditions: Homo sapiens;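 further: growth inhibition of OE19 cells, measured through a cell viability read-out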
Description: SANGER: Inhibition of human OE19 cell growth in a cell viability assay.

P30-OHK = assay type: functional, cell-based; conditions: Homo sapiens;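 further: growth inhibition of the P30-OHK cell line, read out with a cell viability assay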
Description: SANGER: Inhibition of human P30-OHK cell growth in a cell viability assay.

GB-1 = assay type: functional, cell-based; conditions: Homo sapiens;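 further: growth of GB-1 cells judged by a viability assay, IC50 marks the concentration inhibiting growth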
Description: SANGER: Inhibition of human GB-1 cell growth in a cell viability assay.

COLO-792 = assay type: functional, cell-based; conditions: Homo sapiens
Description: SANGER: Inhibition of human COLO-792 cell growth in a cell viability assay.

NEC8 = assay type: functional, cell-based; conditions: Homo sapiens;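 further: growth inhibition of human NEC8 cells, read out by a cell viability assay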
Description: SANGER: Inhibition of human NEC8 cell growth in a cell viability assay.

NCI-H1304 = assay type: functional, cell-based; conditions: Homo sapiens;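 further: growth inhibition of the cancer cell line, measured in a cell viability assay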
Description: SANGER: Inhibition of human NCI-H1304 cell growth in a cell viability assay.

Detroit 562 = assay type: functional, cell-based; conditions: Homo sapiens;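 further: growth inhibition of human Detroit 562 cells, read out by a cell viability assay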
Description: SANGER: Inhibition of human Detroit562 cell growth in a cell viability assay.

NOMO-1 = assay type: functional, cell-based; conditions: Homo sapiens;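 further: growth inhibition of human NOMO-1 cells measured by a cell viability assay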
Description: SANGER: Inhibition of human NOMO-1 cell growth in a cell viability assay.

RS4-11 = assay type: functional, cell-based; conditions: Homo sapiens;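 further: growth inhibition of RS4-11 cells, read out by a cell viability assay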
Description: SANGER: Inhibition of human RS4-11 cell growth in a cell viability assay.

KARPAS-45 = assay type: functional, cell-based; conditions: Homo sapiens;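 further: inhibition of cell line growth, read out through a viability assay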
Description: SANGER: Inhibition of human KARPAS-45 cell growth in a cell viability assay.

KU812 cell line = assay type: functional, cell-based; conditions: Homo sapiens;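 further: growth inhibition of KU812 cells, read out with a cell viability assay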
Description: SANGER: Inhibition of human KU812 cell growth in a cell viability assay.

HCE-T = assay type: functional, cell-based; conditions: Homo sapiens;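 further: cell viability assay read-out, reporting inhibition of HCE-T cell growth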
Description: SANGER: Inhibition of human HCE-T cell growth in a cell viability assay.

769-P = assay type: functional, cell-based; conditions: Homo sapiens
Description: SANGER: Inhibition of human 769-P cell growth in a cell viability assay.

REH = assay type: functional, cell-based; conditions: Homo sapiens;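 further: growth inhibition of REH cells determined with a cell viability read-out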
Description: SANGER: Inhibition of human REH cell growth in a cell viability assay.

LS-123 = assay type: functional, cell-based; conditions: Homo sapiens
Description: SANGER: Inhibition of human LS-123 cell growth in a cell viability assay.

NCI-H1395 = assay type: functional, cell-based; conditions: Homo sapiens;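 further: cell viability assay read-out quantifying reduced proliferation of human NCI-H1395 cells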
Description: SANGER: Inhibition of human NCI-H1395 cell growth in a cell viability assay.

ETK-1 = assay type: functional, cell-based; conditions: Homo sapiens;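 further: growth inhibition of human ETK-1 cells, read out with a cell viability assay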
Description: SANGER: Inhibition of human ETK-1 cell growth in a cell viability assay.

LB2518-MEL = assay type: functional, cell-based; conditions: Homo sapiens;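 further: growth inhibition of human LB2518-MEL cells, measured with a cell viability assay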
Description: SANGER: Inhibition of human LB2518-MEL cell growth in a cell viability assay.

SNU-5 = assay type: functional, cell-based; conditions: Homo sapiens;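 further: cell viability readout used to measure growth inhibition in human NCI-SNU-5 cells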
Description: SANGER: Inhibition of human NCI-SNU-5 cell growth in a cell viability assay.

EOL1 = assay type: functional, cell-based; conditions: Homo sapiens;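 further: growth inhibition of EoL-1 cells, read out by a cell viability assay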
Description: SANGER: Inhibition of human EoL-1-cell cell growth in a cell viability assay.

SNB-75 = assay type: functional, cell-based; conditions: Homo sapiens;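 further: cell viability assay measuring growth inhibition of human SNB-75 cells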
Description: SANGER: Inhibition of human SNB75 cell growth in a cell viability assay.

SF-539 = assay type: functional, cell-based; conditions: Homo sapiens;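 further: Read-out is a cell viability assay, with IC50 reflecting inhibition of cell growth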
Description: SANGER: Inhibition of human SF539 cell growth in a cell viability assay.

SH-4 = assay type: functional, cell-based; conditions: Homo sapiens;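 further: growth inhibition of SH-4 cells, read out with a cell viability assay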
Description: SANGER: Inhibition of human SH-4 cell growth in a cell viability assay.

NCI-H1155 = assay type: functional, cell-based; conditions: Homo sapiens;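 further: cell growth inhibition measured by a viability assay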
Description: SANGER: Inhibition of human NCI-H1155 cell growth in a cell viability assay.

HD-MY-Z = assay type: functional, cell-based; conditions: Homo sapiens;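 further: growth inhibition of HD-MY-Z cells, read out with a cell viability assay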
Description: SANGER: Inhibition of human HD-MY-Z cell growth in a cell viability assay.

HH = assay type: functional, cell-based; conditions: Homo sapiens
Description: SANGER: Inhibition of human HH cell growth in a cell viability assay.

SK-N-FI = assay type: functional, cell-based; conditions: Homo sapiens;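 further: cell viability assay measuring growth inhibition of human SK-N-FI cells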
Description: SANGER: Inhibition of human SK-N-FI cell growth in a cell viability assay.

ES5 = assay type: functional, cell-based; conditions: Homo sapiens;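 further: growth inhibition of human ES5 cells, read out by a cell viability assay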
Description: SANGER: Inhibition of human ES5 cell growth in a cell viability assay.

HT-144 = assay type: functional, cell-based; conditions: Homo sapiens
Description: SANGER: Inhibition of human HT-144 cell growth in a cell viability assay.

CAL-12T = assay type: functional, cell-based, Homo sapiens; conditions: Homo sapiens, CAL-12T;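 further: growth inhibition of human CAL-12T cells, read out with a cell viability assay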
Description: SANGER: Inhibition of human CAL-12T cell growth in a cell viability assay.

NCI-H2228 = assay type: functional, cell-based; conditions: Homo sapiens;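 further: growth inhibition of human NCI-H2228 cells, read out by a cell viability assay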
Description: SANGER: Inhibition of human NCI-H2228 cell growth in a cell viability assay.

KMOE-2 = assay type: functional, cell-based; conditions: Homo sapiens;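 further: growth inhibition of human KMOE-2 cells, read out with a cell viability assay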
Description: SANGER: Inhibition of human KMOE-2 cell growth in a cell viability assay.

LB2241-RCC = assay type: functional, cell-based; conditions: Homo sapiens;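 further: cell viability assay measuring how strongly the cultured human renal carcinoma line is prevented from growing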
Description: SANGER: Inhibition of human LB2241-RCC cell growth in a cell viability assay.

HCE-4 = assay type: functional, cell-based; conditions: Homo sapiens
Description: SANGER: Inhibition of human HCE-4 cell growth in a cell viability assay.

QIMR-WIL = assay type: functional, cell-based; conditions: Homo sapiens
Description: SANGER: Inhibition of human QIMR-WIL cell growth in a cell viability assay.

CA46 = assay type: functional, cell-based; conditions: Homo sapiens
Description: SANGER: Inhibition of human CA46 cell growth in a cell viability assay.

U-87 MG = assay type: functional, cell-based, U-87MG ATCC; conditions: Homo sapiens
Description: SANGER: Inhibition of human U-87-MG cell growth in a cell viability assay.

CTV-1 = assay type: functional, cell-based; conditions: Homo sapiens
Description: SANGER: Inhibition of human CTV-1 cell growth in a cell viability assay.

GR-ST = assay type: functional, cell-based; conditions: Homo sapiens
Description: SANGER: Inhibition of human GR-ST cell growth in a cell viability assay.

KM12 = assay type: functional, cell-based; conditions: Homo sapiens
Description: SANGER: Inhibition of human KM12 cell growth in a cell viability assay.

KG-1 = assay type: functional, cell-based; conditions: Homo sapiens
Description: SANGER: Inhibition of human KG-1 cell growth in a cell viability assay.

DOHH-2 = assay type: functional, cell-based; conditions: Homo sapiens
Description: SANGER: Inhibition of human DOHH-2 cell growth in a cell viability assay.

CO[C@@]12[C@H](COC(N)=O)C3=C(C(=O)C(C)=C(N)C3=O)N1C[C@@H]1N[C@@H]12 [MITOMYCIN]
IC50 (KNS-81-FD): 1590 nM | IC50 (SK-LMS-1): 439 nM | IC50 (SCC-15): 864 nM | IC50 (OS-RC-2): 264 nM | IC50 (TE-9): 500 nM | IC50 (DMS-79): 2470 nM | IC50 (RKO): 125 nM | IC50 (C-33-A): 487 nM | IC50 (GAK): 596 nM | IC50 (DB): 430 nM | IC50 (EW-13): 52.5 nM | IC50 (UACC-257): 1570 nM | IC50 (ML-2): < 62.5 nM | IC50 (MFM-223): 10400 nM | IC50 (LOUCY): 26.2 nM | IC50 (CAS-1): 3380 nM | IC50 (NY): 657 nM | IC50 (SW 954): 44.9 nM | IC50 (IST-SL1): 1450 nM | IC50 (TE-6): 894 nM | IC50 (MZ2-MEL): 432 nM | IC50 (Ramos-2G6-4C10): 2550 nM | IC50 (OCI-AML2): < 62.5 nM | IC50 (MOLT-4): < 62.5 nM | IC50 (OE19): 365 nM | IC50 (P30-OHK): < 62.5 nM | IC50 (GB-1): 452 nM | IC50 (COLO-792): 1500 nM | IC50 (NEC8): 187 nM | IC50 (NCI-H1304): 375 nM | IC50 (Detroit 562): 170 nM | IC50 (NOMO-1): 151 nM | IC50 (RS4-11): 34.9 nM | IC50 (KARPAS-45): 2270 nM | IC50 (KU812 cell line): 150 nM | IC50 (HCE-T): 372 nM | IC50 (769-P): < 62.5 nM | IC50 (REH): < 62.5 nM | IC50 (LS-123): 1720 nM | IC50 (NCI-H1395): 2230 nM | IC50 (ETK-1): 108 nM | IC50 (LB2518-MEL): 535 nM | IC50 (SNU-5): 141 nM | IC50 (EOL1): 162 nM | IC50 (SNB-75): 303 nM | IC50 (SF-539): 127 nM | IC50 (SH-4): 387 nM | IC50 (NCI-H1155): 873 nM | IC50 (HD-MY-Z): 640 nM | IC50 (HH): 1070 nM | IC50 (SK-N-FI): > 16000 nM | IC50 (ES5): 102 nM | IC50 (HT-144): 23.8 nM | IC50 (CAL-12T): 491 nM | IC50 (NCI-H2228): < 62.5 nM | IC50 (KMOE-2): 1620 nM | IC50 (LB2241-RCC): < 62.5 nM | IC50 (HCE-4): 57.9 nM | IC50 (QIMR-WIL): 120 nM | IC50 (CA46): 1020 nM | IC50 (U-87 MG): 1270 nM | IC50 (CTV-1): 18.7 nM | IC50 (GR-ST): 121 nM | IC50 (KM12): 1080 nM | IC50 (KG-1): 597 nM | IC50 (DOHH-2): 93.8 nM

CC(C)=CC[C@@H](O)C1=CC(=O)c2c(O)ccc(O)c2C1=O [SHIKONIN]
IC50 (KNS-81-FD): 1080 nM | IC50 (SK-LMS-1): 108 nM | IC50 (SCC-15): 650 nM | IC50 (OS-RC-2): 314 nM | IC50 (TE-9): 408 nM | IC50 (DMS-79): > 16000 nM | IC50 (RKO): 270 nM | IC50 (C-33-A): 913 nM | IC50 (GAK): 1040 nM | IC50 (DB): 726 nM | IC50 (EW-13): 267 nM | IC50 (UACC-257): > 16000 nM | IC50 (ML-2): 618 nM | IC50 (MFM-223): 899 nM | IC50 (LOUCY): 586 nM | IC50 (CAS-1): 462 nM | IC50 (NY): 1050 nM | IC50 (SW 954): 467 nM | IC50 (IST-SL1): > 16000 nM | IC50 (TE-6): 2970 nM | IC50 (MZ2-MEL): 385 nM | IC50 (Ramos-2G6-4C10): 315 nM | IC50 (OCI-AML2): 298 nM | IC50 (MOLT-4): 410 nM | IC50 (OE19): 807 nM | IC50 (P30-OHK): 220 nM | IC50 (GB-1): 1330 nM | IC50 (COLO-792): > 16000 nM | IC50 (NEC8): 840 nM | IC50 (NCI-H1304): > 16000 nM | IC50 (Detroit 562): > 16000 nM | IC50 (NOMO-1): 1160 nM | IC50 (RS4-11): 417 nM | IC50 (KARPAS-45): 9990 nM | IC50 (KU812 cell line): < 62.5 nM | IC50 (HCE-T): 720 nM | IC50 (769-P): 689 nM | IC50 (REH): 147 nM | IC50 (LS-123): 538 nM | IC50 (NCI-H1395): > 16000 nM | IC50 (ETK-1): 2450 nM | IC50 (LB2518-MEL): 3280 nM | IC50 (SNU-5): 9540 nM | IC50 (EOL1): 509 nM | IC50 (SNB-75): 746 nM | IC50 (SF-539): 857 nM | IC50 (SH-4): 371 nM | IC50 (NCI-H1155): > 16000 nM | IC50 (HD-MY-Z): 470 nM | IC50 (HH): 1120 nM | IC50 (SK-N-FI): 7690 nM | IC50 (ES5): 2630 nM | IC50 (HT-144): 561 nM | IC50 (CAL-12T): 1900 nM | IC50 (NCI-H2228): 901 nM | IC50 (KMOE-2): 1240 nM | IC50 (LB2241-RCC): 1290 nM | IC50 (HCE-4): 389 nM | IC50 (QIMR-WIL): 182 nM | IC50 (CA46): 192 nM | IC50 (U-87 MG): 1280 nM | IC50 (CTV-1): > 16000 nM | IC50 (GR-ST): 102 nM | IC50 (KM12): 740 nM | IC50 (KG-1): 1600 nM | IC50 (DOHH-2): 706 nM
